Measurements as given in patent publication US20170158636A1, “FUNCTIONALISED AND SUBSTITUTED CARBAZOLES AS ANTI-CANCER AGENTS” (Novogen Ltd., priority 2014, published 2017).

What was measured:
Assay in all cases: Anti-proliferative activity, cell-titre luminescent viability assay
Assay type in all cases: cell-based
[1] = test system: A549 lung (NSLC) cancer cells; conditions: Homo sapiens, 72 hours exposure
Description: (§1) The ability of compounds 1001-1018 and 1037-1039 to inhibit the proliferation of cancer cells representative of neuroblastoma, melanoma, prostate cancer, colorectal cancer, non-small cell lung carcinoma, and triple negative breast cancer was assessed (Table 1).
(§2) Briefly, a pre-determined number of cells as calculated from cell growth assays for each of the cell lines employed were seeded into their respective culture medium (using ATCC culture parameters—http://www.atcc.org) and cultured for 24 hours at 37° C. and 5% CO2 in 96-well culture plates. Once attached, each cell line was then exposed to increasing concentrations of each respective analogue (0.03, 0.3, 3 and 30 μM for compounds 1001-13 and 1015-18; 0.1, 0.3, 1, 3, 10 and 30 μM for compounds 1014 and 1037-39), cultured for a further 72 hours and exposed to cell-titre luminescent reagent (100 μL/well) for a further 30 minutes) to measure cell viability. Luminescence was captured using an EnVision multilabel reader and the data for each analogue concentration compared against no treatment control. For compounds 1001-13 and 1015-18, semi-log plots of Percent of Control versus concentration were prepared and IC50 determined using linear regression analysis. For compounds 1014 and 1037-39, cell viability was normalized to control (vehicle alone) and dose-response curves, and half maximal effective concentration (EC50) values were determined using Graph Pad Prism 6 (nonlinear regression sigmoidal dose-response variable slope).

[2] = test system: CaCo2 colorectal cancer cells; conditions: Homo sapiens, Caco-2, 72 hours exposure
Description: as §1, §2

[3] = test system: DU145 prostate cancer cells; conditions: Homo sapiens, DU-145, 72 hours exposure
Description: as §1, §2

[4] = test system: MDA-MB-231 breast cancer cells; conditions: Homo sapiens, 72 hours exposure
Description: as §1, §2

[5] = test system: PC3 prostate cancer cells; conditions: 72 hours exposure
Description: as §1, §2

[6] = test system: SK-Mel-28 melanoma cells; conditions: Homo sapiens, 72 hours exposure
Description: as §1, §2

[7] = test system: SK-N-SH neuroblastoma cells; conditions: Homo sapiens, 72 hours exposure
Description: as §1, §2

Q: Which IC50 [1] does the source give for `CN(C)CCCn1c2ccccc2c2cc(C(=O)N3CCN(CCc4ccc(F)cc4)CC3)ccc21` [Compound 1002, (9-(3-(dimethylamino)propyl)-9H-carbazol-3-yl)(4-(4-fluorophenethyl)piperazin-1-yl)methanone] here?
A: Its IC50 is 3.4 µM.

Q: And the IC50 [2]?
A: The IC50 was 3.7 µM.

Q: What about the IC50 [3] of the same compound?
A: Its IC50 is 3.7 µM.

Q: And the IC50 [4]?
A: Its IC50 is 4.5 µM.

Q: And the IC50 [5]?
A: The IC50 was 6.1 µM.

Q: What about the IC50 [6] of the same compound?
A: Its IC50 is 3.7 µM.

Q: And the IC50 [7]?
A: Its IC50 is 3.4 µM.

Q: For `COc1ccc(CCN2CCN(C(=O)c3ccc4c(c3)c3ccccc3n4CCCN(C)C)CC2)cc1` [Compound 1003, (9-(3-(dimethylamino)propyl)-9H-carbazol-3-yl)(4-(4-methoxyphenethyl)piperazin-1-yl)methanone], which IC50 [1] is on record?
A: Its IC50 is 3.4 µM.

Q: And the IC50 [2]?
A: The IC50 was 3.7 µM.

Q: What about the IC50 [3] of the same compound?
A: Its IC50 is 3.6 µM.

Q: And the IC50 [4]?
A: Its IC50 is 4.3 µM.

Q: What about the IC50 [5] of the same compound?
A: The IC50 was 3.1 µM.

Q: And the IC50 [6]?
A: The IC50 was 3.2 µM.

Q: What about the IC50 [7] of the same compound?
A: The IC50 was 3.1 µM.

Q: For `CN(C)CCCn1c2ccccc2c2cc(C(=O)N3CCN(CCc4cccc(F)c4)CC3)ccc21` [Compound 1005, (9-(3-(dimethylamino)propyl)-9H-carbazol-3-yl)(4-(3-fluorophenethyl)piperazin-1-yl)methanone], which IC50 [1] is on record?
A: Its IC50 is 3.5 µM.

Q: What about the IC50 [2] of the same compound?
A: The IC50 was 3.8 µM.

Q: What about the IC50 [3] of the same compound?
A: Its IC50 is 3.2 µM.

Q: And the IC50 [4]?
A: The IC50 was 4.1 µM.

Q: And the IC50 [5]?
A: The IC50 was 3.3 µM.

Q: What about the IC50 [6] of the same compound?
A: The IC50 was 3.5 µM.

Q: And the IC50 [7]?
A: The IC50 was 3.3 µM.

Q: Which results are given for `COc1cccc(CCN2CCN(C(=O)c3ccc4c(c3)c3ccccc3n4CCCN(C)C)CC2)c1` [Compound 1006, (9-(3-(dimethylamino)propyl)-9H-carbazol-3-yl)(4-(3-methoxyphenethyl)piperazin-1-yl)methanone]?
A: IC50 [1]: 3.5 µM; IC50 [2]: 4.1 µM; IC50 [3]: 4.4 µM; IC50 [4]: 3 µM; IC50 [5]: 5.2 µM; IC50 [6]: 3.5 µM; IC50 [7]: 3.4 µM

Q: How did the IC50 [1] turn out when `CCN(CC)CCCn1c2ccccc2c2cc(C(=O)N3CCN(CCc4ccc(OC)cc4)CC3)ccc21` [Compound 1008, (9-(3-(diethylamino)propyl)-9H-carbazol-3-yl)(4-(4-methoxyphenethyl)piperazin-1-yl)methanone] was run?
A: Its IC50 is 3.8 µM.

Q: What about the IC50 [2] of the same compound?
A: Its IC50 is 6.7 µM.

Q: What about the IC50 [3] of the same compound?
A: The IC50 was 4 µM.

Q: And the IC50 [4]?
A: The IC50 was 3.5 µM.

Q: And the IC50 [5]?
A: Its IC50 is 4.8 µM.

Q: And the IC50 [6]?
A: The IC50 was 2.5 µM.

Q: What about the IC50 [7] of the same compound?
A: The IC50 was 3.3 µM.

Q: `CCN(CC)CCCn1c2ccccc2c2cc(C(=O)N3CCN(CCc4ccc5c(c4)OCO5)CC3)ccc21` [Compound 1009, (4-(2-(benzo[d][1,3]dioxol-5-yl)ethyl)piperazin-1-yl)(9-(3-(diethylamino)propyl)-9H-carbazol-3-yl)methanone] was tested. Which IC50 [1] did it give?
A: Its IC50 is 4 µM.

Q: And the IC50 [2]?
A: Its IC50 is 5 µM.

Q: What about the IC50 [3] of the same compound?
A: The IC50 was 12.1 µM.

Q: What about the IC50 [4] of the same compound?
A: Its IC50 is 4.5 µM.

Q: And the IC50 [5]?
A: The IC50 was 4.6 µM.

Q: What about the IC50 [6] of the same compound?
A: The IC50 was 4.1 µM.

Q: What about the IC50 [7] of the same compound?
A: The IC50 was 4.8 µM.

Q: For `CCN(CC)CCCn1c2ccccc2c2cc(C(=O)N3CCN(CCc4cccc(F)c4)CC3)ccc21` [Compound 1010, (9-(3-(diethylamino)propyl)-9H-carbazol-3-yl)(4-(3-fluorophenethyl)piperazin-1-yl)methanone], which IC50 [1] is on record?
A: The IC50 was 3.6 µM.

Q: What about the IC50 [2] of the same compound?
A: The IC50 was 4.1 µM.

Q: What about the IC50 [3] of the same compound?
A: The IC50 was 3.7 µM.

Q: And the IC50 [4]?
A: Its IC50 is 4.2 µM.

Q: And the IC50 [5]?
A: The IC50 was 3.7 µM.

Q: And the IC50 [6]?
A: Its IC50 is 3.9 µM.

Q: What about the IC50 [7] of the same compound?
A: Its IC50 is 3.3 µM.

Q: Which results are given for `CCN(CC)CCCn1c2ccccc2c2cc(C(=O)N3CCN(CCc4cccc(OC)c4)CC3)ccc21` [Compound 1011, (9-(3-(diethylamino)propyl)-9H-carbazol-3-yl)(4-(3-methoxyphenethyl)piperazin-1-yl)methanone]?
A: IC50 [1]: 3.8 µM; IC50 [2]: 4 µM; IC50 [3]: 4.5 µM; IC50 [4]: 2.5 µM; IC50 [5]: 5.5 µM; IC50 [6]: 3.4 µM; IC50 [7]: 4.2 µM

Q: Which results are given for `CCN(CC)CCCn1c2ccccc2c2cc(C(=O)N3CCN(CCc4ccccc4)CC3)ccc21` [Compound 1012, (9-(3-(diethylamino)propyl)-9H-carbazol-3-yl)(4-phenethylpiperazin-1-yl)methanone]?
A: IC50 [1]: 3.2 µM; IC50 [2]: 2.8 µM; IC50 [3]: 3.5 µM; IC50 [4]: 3.1 µM; IC50 [5]: 4.1 µM; IC50 [6]: 2.8 µM; IC50 [7]: 2.9 µM

Q: For `COc1ccc(CCN2CCN(C(=O)c3ccc4c(c3)c3ccccc3n4CCCN3CCN(C)CC3)CC2)cc1` [Compound 1014, (4-(4-methoxyphenethyl)piperazin-1-yl)(9-(3-(4-methylpiperazin-1-yl)propyl)-9H-carbazol-3-yl)methanone], which IC50 [1] is on record?
A: Its IC50 is 31.1 µM.

Q: And the IC50 [2]?
A: Its IC50 is 13.8 µM.

Q: And the IC50 [3]?
A: Its IC50 is 40.2 µM.

Q: And the IC50 [4]?
A: The IC50 was 10.2 µM.

Q: And the IC50 [5]?
A: Its IC50 is 3.8 µM.

Q: What about the IC50 [6] of the same compound?
A: The IC50 was 5.1 µM.

Q: What about the IC50 [7] of the same compound?
A: The IC50 was 8.8 µM.

Q: What does the source list for `CN1CCN(CCCn2c3ccccc3c3cc(C(=O)N4CCN(CCc5ccc6c(c5)OCO6)CC4)ccc32)CC1` [Compound 1015, (4-(2-(benzo[d][1,3]dioxol-5-yl)ethyl)piperazin-1-yl)(9-(3-(4-methylpiperazin-1-yl)propyl)-9H-carbazol-3-yl)methanone]?
A: IC50 [1]: 4 µM; IC50 [2]: 5.5 µM; IC50 [3]: 15.5 µM; IC50 [4]: 4.4 µM; IC50 [5]: 5.3 µM; IC50 [6]: 3.4 µM; IC50 [7]: 5.1 µM

Q: Which IC50 [1] does the source give for `COc1cccc(CCN2CCN(C(=O)c3ccc4c(c3)c3ccccc3n4CCCN3CCN(C)CC3)CC2)c1` [Compound 1017, (4-(3-methoxyphenethyl)piperazin-1-yl)(9-(3-(4-methylpiperazin-1-yl)propyl)-9H-carbazol-3-yl)methanone] here?
A: Its IC50 is 3.6 µM.

Q: And the IC50 [2]?
A: The IC50 was 4.6 µM.

Q: What about the IC50 [3] of the same compound?
A: The IC50 was 6.6 µM.

Q: What about the IC50 [4] of the same compound?
A: Its IC50 is 3.7 µM.

Q: And the IC50 [5]?
A: Its IC50 is 5.2 µM.

Q: And the IC50 [6]?
A: The IC50 was 4 µM.

Q: And the IC50 [7]?
A: Its IC50 is 4.7 µM.

Q: `O=C(c1ccc2[nH]c3ccccc3c2c1)N1CCN(CCc2ccc(F)cc2)CC1` [Compound 1037, (9H-carbazol-3-yl)(4-(4-fluorophenethyl)piperazin-1-yl)methanone] was tested. Which IC50 [1] did it give?
A: Its IC50 is 16.3 µM.

Q: And the IC50 [2]?
A: The IC50 was over 30 µM.

Q: And the IC50 [3]?
A: Its IC50 is over 30 µM.

Q: What about the IC50 [4] of the same compound?
A: The IC50 was over 30 µM.

Q: What about the IC50 [5] of the same compound?
A: Its IC50 is over 30 µM.

Q: And the IC50 [6]?
A: Its IC50 is over 30 µM.

Q: What about the IC50 [7] of the same compound?
A: The IC50 was over 30 µM.

Q: What does the source list for `O=C(c1ccc2c(c1)c1ccccc1n2CCCCl)N1CCN(CCc2ccc(F)cc2)CC1` [Compound 1038, (9-(3-chloropropyl)-9H-carbazol-3-yl)(4-(4-fluorophenethyl)piperazin-1-yl)methanone]?
A: IC50 [1]: > 30 µM; IC50 [2]: > 30 µM; IC50 [3]: > 30 µM; IC50 [4]: > 30 µM; IC50 [5]: > 30 µM; IC50 [6]: > 30 µM; IC50 [7]: > 30 µM

Q: Which results are given for `O=C(c1ccc2c(c1)c1ccccc1n2CCc1ccc(F)cc1)N1CCN(CCc2ccc(F)cc2)CC1` [Compound 1039, (9-(4-fluorophenethyl)-9H-carbazol-3-yl)(4-(4-fluorophenethyl)piperazin-1-yl)methanone]?
A: IC50 [1]: > 30 µM; IC50 [2]: > 30 µM; IC50 [3]: > 30 µM; IC50 [4]: > 30 µM; IC50 [5]: > 30 µM; IC50 [6]: > 30 µM; IC50 [7]: > 30 µM
